Test [1] deals with human thrombin (Homo sapiens, UniProt P00734). Nature of the test: inhibition of the amidolytic activity of thrombin (chromogenic substrate S-2238). Type of test: biochemical. To be noted: for Ki: human thrombin 0.5 nM, substrate S-2238, pH 7.8, room temperature; for q (ratio of the inhibition of trypsin to the inhibition of thrombin): specificity: Ki trypsin / Ki thrombin. As for the experimental part: A differential inhibition of thrombin and other serine proteases by the above compounds is desirable in order to obtain compounds having as high a specificity as possible and at the same time to avoid possible side-effects.
Specific chromogenic peptide substrates can be used to determine the inhibition of the catalytic activity of the above proteases. The inhibition of the amidolytic activity of thrombin and trypsin by the above guanidines was determined as described hereinafter.
The measurements were carried out on microtitre plates at room temperature. For this, in each well of the plate 150 μl of buffer (50 mM Tris, 100 mM NaCl, 0.1% polyethylene glycol; pH 7.8) were mixed with 50 μl of the inhibitor dissolved in DMSO and diluted in the buffer, and 25 μl of human thrombin (0.5 nM final conc.) were added. After incubation for 10 minutes the reaction was started by the addition of chromogenic substrate S-2238 (H-D-Phe-Pip-Arg-paranitroaniline from Kabivitrum; 10 or 50 μm final conc.) and the hydrolysis of the substrate was followed spectrophotometrically on a kinetic microtiter plate reader for 5 minutes. After graphical presentation of the inhibition curves the Ki values were determined according to the method described in Blochem. J. 55, 1955, 170-171.

Test [2] deals with trypsin. Briefly: inhibition of the amidolytic activity of trypsin (chromogenic substrate S-2251). Type of test: biochemical. To be noted: substrate S-2251, 200 and 750 μM, otherwise analogous to thrombin.

As for `CCOC(=O)CN(C(=O)[C@H](CC(=O)NC[C@@H]1CCCN(C(=N)N)C1)NC(=O)OCc1ccccc1)C1CC1` [Example 1, ethyl [[(S)-3-[(S)-1-(amino-imino-methyl)-piperidin-3-ylmethylcarbamoyl]-2-benzyloxycarbonylamino-propionyl]-cyclopropyl-amino]-acetate], the inhibition constant Ki in test [1] was 1.2 µM; in test [2], 70 µM. For the same compound, in test [1], the “q (ratio of the inhibition of trypsin to the inhibition of thrombin)” value came out at 58.
The like results for `CCOC(=O)CCN(C(=O)[C@H](CC(=O)NC[C@@H]1CCCN(C(=N)N)C1)NC(=O)OCc1ccccc1)C1CC1` [Example 2a, Ethyl 3-[[(S)-3-[(S)-1-(amino-imino-methyl)-piperidin-3-ylmethylcarbamoyl]-2-benzyloxycarbonylamino-propionyl]-cyclopropylamino]-propionate] were, in that order, 0.017 µM, 29 µM and 1706.
The like results for `CCCCN(CC(=O)OCC)C(=O)[C@H](CC(=O)NC[C@@H]1CCCN(C(=N)N)C1)NC(=O)OCc1ccccc1` [Example 2b, ethyl [[(S)-3-[(S)-1-(amino-imino-methyl)-piperidin-3-ylmethylcarbamoyl]-2-benzyloxycarbonylamino-propionyl]-butyl-amino]acetate] were, in that order, 0.61 µM, 56 µM and 92.
In the case of `CCCCN(CCC(=O)OCC)C(=O)[C@H](CC(=O)NC[C@@H]1CCCN(C(=N)N)C1)NC(=O)OCc1ccccc1` [Example 2c, ethyl 3-[[(S)-3-[(S)-1-(amino-imino-methyl)-piperidin-3-ylmethylcarbamoyl]-2-benzyloxycarbonylamino-propionyl]-butylamino]-propionate], the Ki was 0.077 µM in test [1] and 30 µM in test [2]. For the same compound, the “q (ratio of the inhibition of trypsin to the inhibition of thrombin)” value in test [1] is on record as 390.
The like results for `N=C(N)N1CCC[C@@H](CNC(=O)C[C@H](NC(=O)OCc2ccccc2)C(=O)N(CC(=O)O)C2CC2)C1` [Example 3, [[(S)-3-[(S)-1-(amino-imino-methyl)-piperidin-3-ylmethylcarbamoyl]-2-benzyloxycarbonylamino-propionyl]-cyclopropylamino]-acetic acid] were, in that order, 0.012 µM, 19 µM and 1583.
For the compound `N=C(N)N1CCC[C@@H](CNC(=O)C[C@H](NC(=O)OCc2ccccc2)C(=O)N(CCC(=O)O)C2CC2)C1` [Example 4a, 3-[[(S)-3-[(S)-1-(Amino-imino-methyl)-piperidin-3-ylmethylcarbamoyl]-2-benzyloxycarbonylamino-propionyl]-cyclopropylamino]-propionic acid], in test [1], the Ki is 0.079 µM and the “q (ratio of the inhibition of trypsin to the inhibition of thrombin)” value worked out at 1051. Besides, affinity in test [2] was put at a Ki of 83 µM.
For `CCCCN(CC(=O)O)C(=O)[C@H](CC(=O)NC[C@@H]1CCCN(C(=N)N)C1)NC(=O)OCc1ccccc1` [Example 4b, [[(S)-3-[(S)-1-(amino-imino-methyl)-piperidin-3-ylmethylcarbamoyl]-2-benzyloxycarbonylamino-propionyl]-butyl-amino]-acetic acid], the results for the Ki in test [1] and in test [2] were 0.064 µM and 28 µM, respectively. In test [1], the “q (ratio of the inhibition of trypsin to the inhibition of thrombin)” value stood at 438.
The like results for `CCCCN(CCC(=O)O)C(=O)[C@H](CC(=O)NC[C@@H]1CCCN(C(=N)N)C1)NC(=O)OCc1ccccc1` [Example 4c, 3-[[(S)-3-[(S)-1-(amino-imino-methyl)-piperidin-3-ylmethylcarbamoyl]-2-benzyloxycarbonylamino-propionyl]-butyl-amino]propionic acid] were, in that order, 0.3 µM, 100 µM and 333.
The like results for `CCOC(=O)CN(C(=O)[C@H](CC(=O)NCC1CN(C(=N)N)CCO1)NC(=O)OCc1ccccc1)C1CC1` (stereo partly drawn) [Example 5a, ethyl [[(S)-3-[4-(amino-imino-methyl)-morpholin-2-ylmethylcarbamoyl]-2-benzyloxycarbonylaminopropionyl]-cyclopropyl-amino]-acetate] were, in that order, 8.9 µM, 231 µM and 26.
The like results for `CCCCN(CC(=O)OCC)C(=O)[C@H](CC(=O)NCC1CN(C(=N)N)CCO1)NC(=O)OCc1ccccc1` (stereo partly drawn) [Example 5b, ethyl [[(S)-3-[4-(amino-imino-methyl)-morpholin-2-ylmethylcarbamoyl]-2-benzyloxycarbonylaminopropionyl]-butyl-amino]-acetate] were, in that order, 0.03 µM, 150 µM and 5000.
Consider `CCOC(=O)CCN(C(=O)[C@H](CC(=O)NCC1CN(C(=N)N)CCO1)NC(=O)OCc1ccccc1)C1CC1` (stereo partly drawn) [Example 5c, ethyl 3-[[(S)-3-[4-(amino-imino-methyl)-morpholin-2-ylmethylcarbamoyl]-2-benzyloxycarbonylamino-propionyl]-cyclopropyl-amino]-propionate], for which, in test [1], the affinity corresponds to a Ki of 0.054 µM and the “q (ratio of the inhibition of trypsin to the inhibition of thrombin)” value stood at 537. Also, in test [2], the inhibition constant (Ki) came to 29 µM.
For the compound `CCCCN(CCC(=O)OCC)C(=O)[C@H](CC(=O)NCC1CN(C(=N)N)CCO1)NC(=O)OCc1ccccc1` (stereo partly drawn) [Example 5d, ethyl 3-[[(S)-3-[4-(amino-imino-methyl)-morpholin-2-ylmethylcarbamoyl]-2-benzyloxycarbonylaminopropionyl]-butyl-amino]-propionate], in test [1], the Ki is 0.13 µM and the “q (ratio of the inhibition of trypsin to the inhibition of thrombin)” value was 92. In addition, the inhibition constant Ki in test [2] stood at 12 µM.
In the case of `N=C(N)N1CCOC(CNC(=O)C[C@H](NC(=O)OCc2ccccc2)C(=O)N(CC(=O)O)C2CC2)C1` (stereo partly drawn) [Example 6a], in test [1], the affinity corresponds to a Ki of 0.45 µM and the “q (ratio of the inhibition of trypsin to the inhibition of thrombin)” value is 311.
Consider `CCCCN(CC(=O)O)C(=O)[C@H](CC(=O)NCC1CN(C(=N)N)CCO1)NC(=O)OCc1ccccc1` (stereo partly drawn) [Example 6b, [[(S)-3-[4-(amino-imino-methyl)-morpholin-2-ylmethylcarbamoyl]-2-benzyloxycarbonylamino-propionyl]-butyl-amino]-acetic acid], for which, in test [1], the inhibitory constant (Ki) was found to be 0.0035 µM and the “q (ratio of the inhibition of trypsin to the inhibition of thrombin)” value amounted to 18571. The compound also showed a Ki in test [2] of 65 µM.
The like results for `N=C(N)N1CCOC(CNC(=O)C[C@H](NC(=O)OCc2ccccc2)C(=O)N(CCC(=O)O)C2CC2)C1` (stereo partly drawn) [Example 6c, 3-[[(S)-3-[4-(amino-imino-methyl)-morpholin-2-ylmethylcarbamoyl]-2-benzyloxycarbonylamino-propionyl]-cyclopropyl-amino]propionic acid] were, in that order, 0.33 µM, 279 and 92 µM.
In the case of `CCCCN(CCC(=O)O)C(=O)[C@H](CC(=O)NCC1CN(C(=N)N)CCO1)NC(=O)OCc1ccccc1` (stereo partly drawn) [Example 6d, 3-[[(S)-3-[4-(amino-imino-methyl)-morpholin-2-ylmethylcarbamoyl]-2-benzyloxycarbonylamino-propionyl]-butyl-amino]propionic acid], the results for the Ki in test [1] and in test [2] were 0.94 µM and 85 µM, respectively. In test [1], the “q (ratio of the inhibition of trypsin to the inhibition of thrombin)” value is reported as 90.
The like results for `CCOC(=O)CN(C(=O)[C@H](CC(=O)NC[C@@H]1CCCN(C(=N)N)C1)NC(=O)OCC1CCCCC1)C1CC1` [Example 7, ethyl [[(S)-3-[(S)-1-(amino-imino-methyl)-piperidin-3-ylmethylcarbamoyl]-2-cyciohexylmethoxycarbonylamino-propionyl]-cyclopropyl-amino]-acetate] were, in that order, 2 µM, 50 µM and 25.
The like results for `N=C(N)N1CCC[C@@H](CNC(=O)C[C@H](NC(=O)OCC2CCCCC2)C(=O)N(CC(=O)O)C2CC2)C1` [Example 8, [[(S)-3-[(S)-1-(Amino-imino-methyl)-piperidin-3-ylmethylcarbamoyl]-2-cyclohexylmethoxycarbonylamino-propionyl]cyclopropyl-amino]-acetic acid] were, in that order, 0.017 µM, 27 µM and 1588.
Take `N=C(N)N1CCC[C@@H](CNC(=O)C[C@H](NC(=O)CSc2ncccn2)C(=O)N(CCNC(=O)c2cnccn2)C2CC2)C1` [Example 20, (S)-N4-[(S)-1-(amino-imino-methyl)-piperidin-3-ylmethyl]-N1-cyclopropyl-N1-(2-pyrazin-2-ylcarbonylamino-ethyl)-2-pyrimidin-2-ylsulphanylacetylamino-succinamide]: in test [1], the Ki stood at 0.00086 µM and the “q (ratio of the inhibition of trypsin to the inhibition of thrombin)” value was found to be 5233.
As for `N=C(N)N1CCC[C@@H](CNC(=O)C[C@H](NC(=O)COc2ccccc2)C(=O)N(CCNC(=O)c2cnccn2)C2CC2)C1` [Example 21d, N4-[(S)-1-(amino-imino-methyl)-piperidin-3-ylmethyl]N1-cyclopropyl-2-phenoxyacetylamino-N1-(2-pyrazin-2-ylcarbonylamino-ethyl)-succinamide], in test [1], the affinity corresponds to a Ki of 0.0013 µM and the “q (ratio of the inhibition of trypsin to the inhibition of thrombin)” value amounted to 19231.

For the origin of these results see US5559232A, “Carboxamides” (Hoffmann-La Roche Inc., priority 1993, dated 1996).
